Measurements from patent publication US20260109709A1 (MIRATI THERAPEUTICS, INC., priority 2021, published 2026).
Where a name gives a salt, the structure may show the parent alone. Read-outs that look alike come from different tables or passages of the source.

Tests used:
[1] = biological target: T1, PRMT5-MEP50 (Homo sapiens, UniProt O14744); assay: SPR binding assay (PRMT5.MTA and PRMT5·SAM surfaces); conditions: steady-state fit
T1 construct: biotin (in vivo biotinylated)
Experimental: In vivo biotinylated PRMT5-MEP50 was diluted to […] in 25 mM Bicine pH 7.6, 100 mM NaCl, 1 mM TCEP, and 0.05% Tween-20 and injected at 5 μl/min flow rate into flow cell 2 (FC2) of a Series S Sensor Chip SA (Cytiva) in a Biacore T200 or in a Biacore 8K plus (Cytiva). SPR screening was performed in MTA running buffer (25 mM Bicine pH 7.6, 100 mM NaCl, 1 mM TCEP, 20 µM MTA, 0.05% Tween-20 and 2% DMSO). The biotinylated PRMT5-MEP50 surface was equilibrated with MTA running buffer for 12 hours prior to the start. […] Subsequently, compound titration was repeated in SAM-running buffer (25 mM Bicine pH 7.6, 100 mM NaCl, 1 mM TCEP, 20 μM SAM, 0.05% Tween-20, and 2% DMSO). […] After double referencing, the steady-state response was extracted for each fragment concentration and was fit to the Langmuir isotherm equation to determine the equilibrium dissociation constant (KD).

[2] = biological target: T2, PRMT5/MEP50 complex (Homo sapiens, UniProt O14744); assay: PRMT5:MEP50 FlashPlate Assay (histone H4 peptide methylation); type: biochemical; conditions: 40 nM H4 (1-15) peptide, 1 μM SAM
T2 construct: purchased Reaction Biology Corporation
T2 sequence (O14744 2-637 limits assumed): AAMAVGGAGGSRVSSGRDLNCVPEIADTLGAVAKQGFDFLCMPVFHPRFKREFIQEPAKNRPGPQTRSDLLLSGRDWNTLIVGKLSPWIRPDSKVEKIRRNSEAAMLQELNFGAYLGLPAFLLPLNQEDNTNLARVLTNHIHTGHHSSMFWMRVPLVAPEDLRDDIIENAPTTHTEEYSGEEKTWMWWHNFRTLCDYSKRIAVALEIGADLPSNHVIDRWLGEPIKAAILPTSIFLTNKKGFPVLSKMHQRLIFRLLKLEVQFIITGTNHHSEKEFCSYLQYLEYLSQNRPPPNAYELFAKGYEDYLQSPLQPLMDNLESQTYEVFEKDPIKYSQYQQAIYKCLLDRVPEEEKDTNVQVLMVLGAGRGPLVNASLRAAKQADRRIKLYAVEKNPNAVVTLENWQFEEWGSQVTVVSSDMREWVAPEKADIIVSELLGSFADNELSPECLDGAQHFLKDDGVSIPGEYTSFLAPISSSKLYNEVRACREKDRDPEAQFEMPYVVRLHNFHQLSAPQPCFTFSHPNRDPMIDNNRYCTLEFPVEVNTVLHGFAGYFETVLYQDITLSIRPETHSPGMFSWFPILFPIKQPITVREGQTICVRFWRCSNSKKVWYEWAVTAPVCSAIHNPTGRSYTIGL
T2 sequence (Q9BQA1 2-342 partner limits assumed): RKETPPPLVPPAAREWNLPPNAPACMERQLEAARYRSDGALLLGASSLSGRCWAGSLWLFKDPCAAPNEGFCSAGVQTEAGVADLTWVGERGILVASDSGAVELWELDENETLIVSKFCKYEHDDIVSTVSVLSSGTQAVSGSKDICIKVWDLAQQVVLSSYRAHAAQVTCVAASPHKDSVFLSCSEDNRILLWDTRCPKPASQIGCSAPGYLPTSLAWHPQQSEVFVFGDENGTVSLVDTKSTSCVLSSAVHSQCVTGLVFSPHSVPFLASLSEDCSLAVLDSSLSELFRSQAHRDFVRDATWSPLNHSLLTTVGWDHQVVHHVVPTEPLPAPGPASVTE
Experimental: The PRMT5 inhibitory activity of compounds of the present invention was determined using a PRMT5: MEP50 FlashPlate Assay and a PRMT5: MEP50 HotSpot Assay (Reaction Biology Corporation).
The assay uses purified human, PRMT5 enzyme to convert S-adenosyl-L-[methyl-3H]methionine plus histone H4 L-arginine to S-adenosyl-L-homocysteine plus histone H4 [methyl-3H]-L-arginine. The assay was carried out using Streptavidin-coated FlashPlates (Perkin Elmer), which contained a scintillant embedded in the plastic of the plate. The histone H4 peptide substrate was conjugated with biotin, which binds to the streptavidin-coated well of the plate, placing the H4 peptide in close proximity to the side well and the scintillant. The transfer of the tritiated methyl group from S-adenosyl-L-[methyl-3H]methionine to the bound histone H4 peptide generated a radiolabeled histone H4, which was quantitated by measuring in a scintillation counter to determine the activity of PRMT5 enzyme in the presence and absence of compound. […] Briefly, compounds of the present invention were solubilized in 100% DMSO at a highest concentration of 10 mM. […] Control samples lacking compound, PRMT5/MEP50 complex or various reaction components also were prepared and processed in parallel with compound test samples. SAH was used as a positive control for assay validation. To measure PRMT5 inhibitory activity, 3 nM PRMT5/MEP50 complex (Reaction Biology Corporation) was preincubated with test compound in assay buffer containing 40 nM histone H4 peptide (amino acids 1-15)-Biotin conjugate for 20 min at room temperature. The enzymatic reaction was initiated by adding 1 μM tritiated S-adenosyl methionine (final concentration) and the reaction is allowed to proceed for 20 min. The reaction was stopped and the amount of bound, tritiated H4 peptide in each sample was determined using a scintillation counter.

[3] = PRMT5.MTA surface, MTA running buffer (20 µM MTA), read-out: KD MTA
[4] = PRMT5·SAM surface, SAM running buffer (20 μM SAM), read-out: KD SAM

T1 sequence (O14744 whole entry): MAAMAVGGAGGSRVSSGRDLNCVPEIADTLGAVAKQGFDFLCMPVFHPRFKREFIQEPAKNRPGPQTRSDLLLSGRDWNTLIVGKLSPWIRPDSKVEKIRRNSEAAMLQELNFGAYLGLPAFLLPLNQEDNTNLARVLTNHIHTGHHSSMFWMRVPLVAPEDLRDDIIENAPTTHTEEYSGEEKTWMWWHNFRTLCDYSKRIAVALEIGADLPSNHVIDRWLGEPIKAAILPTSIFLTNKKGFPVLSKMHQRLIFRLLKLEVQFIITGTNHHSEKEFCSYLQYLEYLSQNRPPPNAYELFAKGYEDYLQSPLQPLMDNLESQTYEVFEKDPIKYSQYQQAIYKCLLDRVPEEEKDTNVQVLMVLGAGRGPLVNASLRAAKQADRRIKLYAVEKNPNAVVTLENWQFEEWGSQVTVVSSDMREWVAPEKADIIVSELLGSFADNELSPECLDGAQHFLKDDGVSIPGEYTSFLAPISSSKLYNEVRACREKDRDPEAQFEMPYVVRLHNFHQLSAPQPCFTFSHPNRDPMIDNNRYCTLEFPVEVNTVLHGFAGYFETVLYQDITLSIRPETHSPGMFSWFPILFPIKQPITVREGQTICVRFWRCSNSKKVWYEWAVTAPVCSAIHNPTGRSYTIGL
T1 sequence (Q9BQA1 whole entry partner): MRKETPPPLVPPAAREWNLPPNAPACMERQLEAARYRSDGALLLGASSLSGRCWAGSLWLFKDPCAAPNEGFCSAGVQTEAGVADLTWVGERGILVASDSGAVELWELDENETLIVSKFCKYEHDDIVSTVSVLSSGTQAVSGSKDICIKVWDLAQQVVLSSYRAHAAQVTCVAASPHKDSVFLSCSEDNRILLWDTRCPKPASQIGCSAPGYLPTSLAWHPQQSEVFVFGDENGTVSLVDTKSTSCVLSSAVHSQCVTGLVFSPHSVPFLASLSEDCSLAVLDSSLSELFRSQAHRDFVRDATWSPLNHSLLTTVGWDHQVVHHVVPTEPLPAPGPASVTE

SMILES | Kd [1, 3] [µM] | Kd [1, 4] [µM] | IC50 ([2]; IC50 + 2 μM MTA, plus 2 μM MTA) [µM] | IC50 ([2]; absence of MTA, read-out: IC50) [µM]
Cn1ncc(-c2ccc(Cl)c3c2nc(N)n3C)c1-c1c(F)cc2ccccc2c1C#N [Example 2-2, 2-[4-(2-amino-7-chloro-1-methyl-benzimidazol-4-yl)-2-methyl-pyrazol-3-yl]-3-fluoro-naphthalene-1-carbonitrile hydrochloride] | 0.151 | 0.679 | 0.527 | 10.7
Cn1c(N)nc2c(Nc3cnc4c(c3)CCCC4)ccc(Cl)c21 [Example 2-4, 7-chloro-1-methyl-N^4-(5,6,7,8-tetrahydroquinolin-3-yl)-1H-benzo[d]imidazole-2,4-diamine hydrochloride] | 26.8 | 40.9 | > 300 | > 300
Cn1c(N)nc2c(C3CCOC3)ccc(Cl)c21 (stereo not drawn) [Example 2-8, 7-chloro-1-methyl-4-tetrahydrofuran-3-yl-benzimidazol-2-amine hydrochloride] | 24.7 |  | > 300 | > 300
CN(c1cccnc1)c1cc(Cl)c2c(c1)nc(N)n2C [Example 2-9, 7-chloro-N5-1-dimethyl-N5-(3-pyridyl)benzimidazole-2,5-diamine hydrochloride] | 65.7 | 175 | > 300 | > 300
Cn1c(N)nc2cc(Cc3cccnc3)cc(Cl)c21 [Example 2-10, 7-chloro-1-methyl-5-(3-pyridylmethyl)benzimidazol-2-amine hydrochloride] | 1.52 | 48.4 | 97.6 | > 300
Cn1c(N)nc2cc(Cc3cccnc3)cc(C#N)c21 [Example 3-2, 2-amino-3-methyl-6-(3-pyridylmethyl)benzimidazole-4-carbonitrile] | 0.513 | 35.6 | 110 | > 300
Cn1c(N)nc2cc(Cc3ccccn3)cc(C#N)c21 [Example 3-3, 2-amino-3-methyl-6-(2-pyridylmethyl)benzimidazole-4-carbonitrile] | 0.187 | 2.75 | 17.6 | 134
Cn1nc(-c2cc(C#N)c3c(c2)nc(N)n3C)c2cnccc21 [Example 3-5, 2-amino-3-methyl-6-(1-methylpyrazolo[4,3-c]pyridin-3-yl)benzimidazole-4-carbonitrile] | 1.14 | 2.77 | > 300 | > 300
Cn1cc(Cc2cc(C#N)c3c(c2)nc(N)n3C)cn1 [Example 3-6, 2-amino-3-methyl-6-[ (1-methylpyrazol-4-yl)methyl]benzimidazole-4-carbonitrile] | 0.179 | 1.94 | 44.4 | > 300
Cn1nccc1Cc1cc(C#N)c2c(c1)nc(N)n2C [Example 3-8, 2-amino-3-methyl-6-[ (2-methylpyrazol-3-yl)methyl]benzimidazole-4-carbonitrile] | 4.43 | 10.2 | > 300 | > 300
Cn1c(N)nc2cc(Cc3ccc4ccncc4c3)cc(C#N)c21 [Example 3-9, 2-amino-6-(7-isoquinolylmethyl)-3-methyl-benzimidazole-4-carbonitrile] | 0.879 | 3.67 | 16.9 | 219
Cn1c(N)nc2cc(C(=O)c3cccnc3)cc(C#N)c21 [Example 3-16, 2-amino-3-methyl-6-(pyridine-3-carbonyl)benzimidazole-4-carbonitrile] | 7.51 | 23.6 | > 300 | > 300
Nc1nc2ncccc2n1Cc1ccccc1 [Example 5-2, 1-benzylimidazo[4,5-b]pyridin-2-amine hydrochloride] |  | 176 | 76.2 | > 300
Cn1ncc(-c2cc(Cl)cc3c2nc(N)n3C)c1-c1ccccc1C#N [Example 6-1, 2-[4-(2-amino-6-chloro-1-methyl-benzimidazol-4-yl)-2-methyl-pyrazol-3-yl]benzonitrile] | 0.322 | 0.816 | 14 | > 300
Cc1cc(-c2cnn(C)c2-c2ccccc2C#N)c2nc(N)n(C)c2c1 [Example 6-2, 2-[4-(2-amino-1,6-dimethyl-benzimidazol-4-yl)-2-methyl-pyrazol-3-yl]benzonitrile hydrochloride] | 0.047 |  | 29.3 | > 300
